# In publication PMC6017357, “In Vitro Inhibitory Effects of Synthetic Cannabinoid EAM-2201 on Cytochrome P450 and UDP-Glucuronosyltransferase Enzyme Activities in Human Liver Microsomes” (Molecules : A Journal of Synthetic Chemistry and Natural …, 2018):
# Assays:
# UGT1A9 = biological target: T1, UGT1A9 (Homo sapiens, UniProt O60656); assay: UGT1A9-catalyzed mycophenolic acid glucuronidation in human liver microsomes; type: in vitro ADME; settings: at 50 µM
# T1 construct: ultrapooled human liver microsomes (0.2 mg/mL), 5 mM UDPGA; from tissue; host or cells: ultrapooled human liver microsomes
# T1 sequence (O60656 26-530): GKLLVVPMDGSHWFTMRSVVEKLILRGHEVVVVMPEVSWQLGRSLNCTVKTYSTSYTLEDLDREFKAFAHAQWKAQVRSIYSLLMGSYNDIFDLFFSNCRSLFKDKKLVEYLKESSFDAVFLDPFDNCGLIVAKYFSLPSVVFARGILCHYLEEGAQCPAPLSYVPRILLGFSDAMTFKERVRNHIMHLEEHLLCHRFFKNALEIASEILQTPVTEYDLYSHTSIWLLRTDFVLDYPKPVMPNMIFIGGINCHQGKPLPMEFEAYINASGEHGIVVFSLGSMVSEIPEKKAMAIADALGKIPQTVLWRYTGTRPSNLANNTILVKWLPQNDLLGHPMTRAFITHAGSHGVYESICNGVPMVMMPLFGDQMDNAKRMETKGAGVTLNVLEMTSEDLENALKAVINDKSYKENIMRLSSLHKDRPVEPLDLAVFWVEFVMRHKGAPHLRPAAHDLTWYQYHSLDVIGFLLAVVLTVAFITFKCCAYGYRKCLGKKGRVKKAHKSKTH
# Procedure: (§1) The inhibitory effects of EAM-2201 on UGT1A1, UGT1A3, UGT1A4, UGT1A6, UGT1A9 and UGT2B7 were evaluated using LC-MS/MS and the cocktail of UGT substrates as previously described. Each incubation mixture was prepared in a final volume of 100 µL as follows: ultrapooled human liver microsomes (0.2 mg/mL), 5 mM UDPGA, 10 mM magnesium chloride, alamethicin (25 µg/mL), 50 mM Tris buffer (pH 7.4), various concentrations of EAM-2201 in DMSO (final concentrations of 1–50 µM, 0.5% DMSO) and the UGT enzyme-specific substrates of two cocktail sets (set A: 0.5 µM SN-38, 2 µM chenodeoxycholic acid and 0.5 µM trifluoperazine; set B: 1 µM N-acetylserotonin, 0.2 µM mycophenolic acid and 1 µM naloxone, acetonitrile content, 0.5%). […] Supernatant from sets A and B (50 µL of each) was mixed and aliquots (5 µL) were analyzed by LC-MS/MS. […]
# (§2) The metabolites formed from the six UGT cocktail substrates were simultaneously measured using LC-MS/MS [41]. […] Each metabolite was quantified via SRM in the negative ion mode: chenodeoxycholic acid 24-acyl-β-glucuronide, 567.2 > 391.0; mycophenolic acid glucuronide, 495.2 > 318.9; and propofol glucuronide (IS), 353.3 > 177.1; and in the positive ion mode: SN-38 glucuronide, 569.0 > 393.0; trifluoperazine glucuronide, 584.2 > 408.1; N-acetylserotonin-β-D-glucuronide, 395.2 > 219.0; naloxone 3-β-D-glucuronide, 504.0 > 310.0; and meloxicam (IS), 352.0 > 115.1. […]
# UGT1A4 = biological target: T2, UGT1A4 (Homo sapiens, UniProt P22310); assay: UGT1A4-catalyzed trifluoperazine N-glucuronidation in human liver microsomes; type: in vitro ADME; settings: at 50 µM
# T2 construct: ultrapooled human liver microsomes (0.2 mg/mL), 5 mM UDPGA; from tissue; host or cells: ultrapooled human liver microsomes
# T2 sequence (P22310 29-534): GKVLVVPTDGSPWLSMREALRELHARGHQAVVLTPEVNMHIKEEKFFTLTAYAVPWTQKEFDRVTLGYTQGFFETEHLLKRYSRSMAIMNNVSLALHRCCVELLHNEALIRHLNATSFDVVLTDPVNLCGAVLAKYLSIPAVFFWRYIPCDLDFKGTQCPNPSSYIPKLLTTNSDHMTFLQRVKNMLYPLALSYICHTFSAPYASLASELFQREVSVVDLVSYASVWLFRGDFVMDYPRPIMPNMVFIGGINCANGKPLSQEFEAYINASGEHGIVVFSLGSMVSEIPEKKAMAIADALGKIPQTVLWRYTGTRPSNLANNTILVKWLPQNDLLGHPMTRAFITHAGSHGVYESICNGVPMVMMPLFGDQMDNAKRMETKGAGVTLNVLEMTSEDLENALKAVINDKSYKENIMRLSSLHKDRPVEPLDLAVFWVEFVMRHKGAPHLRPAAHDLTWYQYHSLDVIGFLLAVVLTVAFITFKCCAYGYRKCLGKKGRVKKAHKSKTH
# Procedure: as §1, §2
structure (smiles),measurement,setting,value
"CCc1ccc(C(=O)c2cn(CCCCCF)c3ccccc23)c2ccccc12 [EAM-2201, (4-ethyl-1-naphthalenyl)[1-(5-fluoropentyl)-1H-indol-3-yl]-methanone]",inhibition of UGT1A9-catalyzed mycophenolic acid glucuronidation,UGT1A9,negligibly inhibited
same,inhibition of UGT1A4-catalyzed trifluoperazine N-glucuronidation,UGT1A4,negligibly inhibited
